In ChEMBL document CHEMBL1777765, “Synthesis of 5-thiodidehydropyranylcytosine derivatives as potential anti-HIV agents” (2011):
Calls of active or inactive are those of the source. No cut-off for these calls is given here.

Tests used:
[1] = test system: Human immunodeficiency virus 1; experiment: Antiviral activity against HIV1 infected in human PBMC assessed as inhibition of viral replication at 1 to 1000 nM by p24 HIV antigen capture assay; format: functional, organism-based
[2] = test system: Human immunodeficiency virus 1; experiment: Antiviral activity against HIV1 infected in human PBMC assessed as inhibition of viral replication at 10 nM by p24 HIV antigen capture assay relative to control; format: functional
[3] = test system: Human immunodeficiency virus 1; experiment: Antiviral activity against HIV1 infected in human PBMC assessed as inhibition of viral replication at 100 nM by p24 HIV antigen capture assay relative to control; format: functional

SMILES	inhibition [1]	inhibition at 0.01 µM [2] [%]	inhibition at 0.1 µM [3] [%]
Nc1ccn([C@H]2C=C[C@@H](CO)[C@H](CO)S2)c(=O)n1	Active		
Nc1ccn([C@@H]2C=C[C@@H](CO)[C@H](CO)S2)c(=O)n1 (racemic)		65	75
Nc1ccn([C@@H]2CS[C@H](CO)O2)c(=O)n1 [LAMIVUDINE]		37	
